Values after ≈ are worked out from the molar mass of the structure shown.
Key:
Format in all cases: functional
[1] = Antioxidant activity assessed as Fe2+ reducing power after 20 min
[2] = tested on: Radical scavenging activity; assay: Antioxidant activity assessed as DPPH free radical scavenging activity after 30 min by UV-VIS spectrophotometer analysis
Kluyveromyces marxianus = assay: Antimicrobial activity against Kluyveromyces marxianus after overnight incubation by conventional agar-dilution method
[3] = tested on: Staphylococcus epidermidis; assay: Antimicrobial activity against Staphylococcus epidermidis after overnight incubation by conventional agar-dilution method
Staphylococcus aureus = assay: Antimicrobial activity against Staphylococcus aureus after overnight incubation by conventional agar dilution method
Escherichia coli = assay: Antimicrobial activity against Escherichia coli after overnight incubation by conventional agar-dilution method

SMILES	IC50 [1] [µM]	IC50 [2] [µM]	MIC (Kluyveromyces marxianus) [mg/L]	MIC [3] [mg/L]	MIC (Staphylococcus aureus) [mg/L]	MIC (Escherichia coli) [mg/L]
C=CCOc1c(OC)cccc1-c1cc(=O)c2cccc(CC=C)c2o1	1.11	320	512 (≈ 1470 µM)	> 1000	> 1000	> 512
Cc1c(C)c2c(c(C)c1O)CCC(C)(C(=O)O)O2 (stereo not given) [TROLOX]	41.9	36	–	–	–	–
OC(Cn1cncn1)(Cn1cncn1)c1ccc(F)cc1F [FLUCONAZOLE]	–	–	4 (≈ 13.1 µM)	–	–	–
Cc1cc(NS(=O)(=O)c2ccc(N)cc2)no1 [SULFAMETHOXAZOLE]	–	–	–	4 (≈ 15.8 µM)	4 (≈ 15.8 µM)	4 (≈ 15.8 µM)
C=CCOc1ccc(/C=C/C(=O)c2cccc(CC=C)c2O)cc1OC	2.96	85	512 (≈ 1460 µM)	> 1000	> 1000	512 (≈ 1460 µM)
C=CCOc1c(/C=C/C(=O)c2cccc(CC=C)c2O)cccc1OC	1.87	163	512 (≈ 1460 µM)	> 1000	> 1000	512 (≈ 1460 µM)
C=CCOc1ccc(-c2cc(=O)c3cccc(CC=C)c3o2)cc1OC	0.57	270	> 512	> 1000	> 1000	> 512

From ChEMBL document CHEMBL3044802, “Synthesis, in vitro antimicrobial and antioxidant activities of chalcone and flavone derivatives holding allylic substitutions” (Med Chem Res, 2011)
